From patent publication US20220087987A1, “A METHOD FOR TREATING SWI/SNF COMPLEX-DEFICIENT CANCERS COMPRISING GLUTATHIONE (GSH) METABOLIC PATHWAY INHIBITOR” (National Cancer Center, priority 2018, published 2022)

Key:
Type in all cases: cell-based, human
ovarian PDCs = test: Cell viability of ovarian patient-derived cancer cells; conditions: 33 μM APR-246 or 100 μM BSO for 6 days
Method: Tumor samples and ascites were obtained from four ovarian cancer patients who underwent surgery or cell-free and concentrated ascites reinfusion therapy at the National Cancer Center Hospital or Kaname-cho Hospital (Tokyo, Japan) and were cultured in vitro. This protocol was approved by the Institutional Review Board of the National Cancer Center (Tokyo, Japan), and informed consent was obtained from the patients. To establish CCCO219 and CCC1216 PDCs, patient ascites (24 ml) were diluted in two volumes of PBS containing 2 mM EDTA, layered over 15 ml Ficoll-Paque PLUS (GE Healthcare), and centrifuged at 2200 rpm for 30 min. The interphase mononuclear layer was transferred to a fresh conical tube and washed twice with PBS containing 2 mM EDTA. […]
Cell viability was examined by measuring the cellular ATP level using the CellTiter-Glo Luminescent Cell Viability Assay (Promega). […] Cells were trypsinized after a further 48 hrs, counted, and reseeded at the specified density in 96-well plates. To measure cell viability after drug treatment, cells were trypsinized, counted, reseeded at the specified density in 96-well plates, and exposed to the indicated concentrations of drugs. Cell viability was measured using the CellTiter-Glo Luminescent Cell Viability Assay. Luminescence was measured using an Envision Multi-label plate reader (PerkinElmer).

[1] = tested on: ARID1A-WT and ARID1A-KO HCT116 cells; test: Cell viability and colony formation assays; conditions: cell viability 5 days, colony formation 10 days
Method: Cell viability was examined by measuring the cellular ATP level using the CellTiter-Glo Luminescent Cell Viability Assay (Promega). To measure cell viability after siRNA-mediated knockdown, cell lines were transfected with siRNAs (25 nM) using Lipofectamine RNAiMAX. After 48 hrs, cells were trypsinized and repeatedly transfected with siRNAs (25 nM) using Lipofectamine RNAiMAX. Cells were trypsinized after a further 48 hrs, counted, and reseeded at the specified density in 96-well plates. To measure cell viability after drug treatment, cells were trypsinized, counted, reseeded at the specified density in 96-well plates, and exposed to the indicated concentrations of drugs. Cell viability was measured using the CellTiter-Glo Luminescent Cell Viability Assay. Luminescence was measured using an Envision Multi-label plate reader (PerkinElmer).
The effect of drug treatment on cancer cell survival was evaluated in a colony formation assay. Cells were trypsinized, counted, reseeded at the specified density in 12-well plates, exposed to the indicated concentrations of drugs for 10-14 days, and fixed for 10 min in 50% (v/v) methanol containing 0.01% (w/v) crystal violet. Images were taken on LAS-3000 Imaging System (Fujifilm) and colonies were counted using Multi Gauge software.

ROS = test: Detection of ROS in cells (ROS-Glo)
Method: GSH, ROS and apoptosis were detected using the GSH/GSSG-Glo Assay (Promega) and/or the GSH-Glo Assay (Promega), the ROS-Glo Assay (Promega), and the Caspase-Glo 3/7 Assay, respectively. To measure levels of GSH, ROS and apoptosis after drug treatment, cells were trypsinized, counted, reseeded at the specified density in 96-well plates and exposed to the indicated concentrations of drugs. After 16-48 hrs, luminescence was measured using an Envision Multi-label plate reader (PerkinElmer). To measure levels of GSH and ROS after siRNA-mediated knockdown, cell lines were transfected with siRNAs (25 nM) using Lipofectamine RNAiMAX. After 48 hrs, cells were trypsinized and transfected repeatedly with siRNAs (25 nM) using Lipofectamine RNAiMAX. Cells were trypsinized after a further 48 hrs, counted, and reseeded at the specified density in 96-well plates. After 72-120 hrs, luminescence was measured using an Envision Multi-label plate reader (PerkinElmer). Cell viability was also measured using the CellTiter-Glo Luminescent Cell Viability Assay (Promega). Caspase-3/7, GSH, and ROS levels were normalized against cell viability. The GSH/GSSG ratio was calculated as the GSH-GSSG signal divided by the GSSG/2 signal. Relative signal ratios in treated samples were normalized against untreated samples.

p53, p21 = test: Immunoblot for p53 and p21; conditions: ARID1A-WT and ARID1A-KO HCT116; 50 μM PRIMA-1, 50 μM APR-246, 10 μM Nutlin3a, 16 hrs
Method: The soluble fractions of whole-cell lysates were mixed with SDS sample buffer. […] The soluble fractions were mixed with SDS sample buffer. Tumor samples derived from xenografts were weighed and washed with PBS. […] The homogenized tumor samples were diluted in an additional 450 μl of NETN420 buffer, incubated for 30 min on ice, and centrifuged at 4° C. for 10 min at 15,000 rpm. The soluble fractions of whole-cell lysates were mixed with SDS sample buffer. Proteins were separated by SDS-PAGE, transferred to PVDF membranes, and immunoblotted with the indicated antibodies. β-actin was used as a loading control. Membranes were blocked overnight at 4° C. or for 1 hr at 25° C. with PVDF Blocking Reagent for Can Get Signal (TOYOBO) and then probed with Can Get Signal Solution 1 (TOYOBO) containing primary antibodies. After washing with TBS containing 0.1% Tween 20, the membranes were incubated with TBS containing 0.1% Tween 20, 1% BSA, and horseradish peroxidase-conjugated anti-mouse or anti-rabbit secondary antibodies, and visualized using Western Lightning ECL Pro (Perkin Elmer). Chemiluminescence signals were measured using LAS-3000 Imaging System (Fujifilm). Signal intensities were measured using Multi Gauge software.

COCC1(CO)C(=O)C2CCN1CC2 (centres unmarked) [APR-246]
sensitivity of ARID1A-deficient versus ARID1A-positive PDCs (ovarian PDCs): more sensitive
growth / survival of ARID1A-KO versus ARID1A-WT cells [1]: markedly decreased the survival of ARID1A-KO cells, but not ARID1A-WT cells
ROS level in SWI/SNF complexes-deficient cancer cells (ROS; 40 μM APR-246, 24 hrs): increased in the ROS level
ROS levels in gastric cancer PDCs (ROS; 40 or 50 μM APR-246, 48 hrs): increased more markedly in ARID1A-deficient than in ARID1A-proficient PDCs
intracellular ROS level (H2O2) (ROS; ARID1A-KO versus ARID1A-WT HCT116 cells, 48 hrs): increased more in ARID1A-KO cells than in ARID1A-WT cells
levels of ROS and apoptosis in ovarian PDCs (ROS; ARID1A-deficient PDCs, 40-50 μM, 24-48 hrs): increased the levels of ROS and apoptosis
ROS level in cancer cell lines (ROS; ARID1A-deficient versus ARID1A-proficient ovarian and other cancer cells): increased ROS level
expression of p53 and p21 (p53, p21): did not markedly affect expression of p53 or p21
